Where two headings read alike, the source gives them in different places. Starred links: 1 amine or outer side, 2 acyl side, 3 side chain; linkers in the order of their positions; H or OH if unused. Non-standard residues stand in square brackets, D forms with d. Residues, ends and D or L forms follow the SMILES beside them. Groups on a side chain read outwards from the residue. ξ: configuration not given here. *: point of attachment. C20 diacid = O=C(O)CCCCCCCCCCCCCCCCCCC(=O)*; γGlu = O=C(O)[C@H](CCC(=O)[*:2])N[*:1]; αMeK = C[C@](N)(CCCCN)C(=O)O; ξIva = CCC(C)(N)C(=O)O; AEEA = NCCOCCOCC(=O)O; Aib = CC(C)(N)C(=O)O
Assays:
[1] = biological target: T1, human GIPR (Homo sapiens, UniProt P48546); test: cAMP HTRF agonist activity assay in CHO-K1 cells expressing GIPR; format: cell-based; settings: read-out: Activity against human GIPR (EC50 nM); further: 5% FBS, 0.1% Casein
T1 construct: expressed in transfected cells; host or cells: CHO-K1 clonal cell line
T1 sequence (P48546 22-466): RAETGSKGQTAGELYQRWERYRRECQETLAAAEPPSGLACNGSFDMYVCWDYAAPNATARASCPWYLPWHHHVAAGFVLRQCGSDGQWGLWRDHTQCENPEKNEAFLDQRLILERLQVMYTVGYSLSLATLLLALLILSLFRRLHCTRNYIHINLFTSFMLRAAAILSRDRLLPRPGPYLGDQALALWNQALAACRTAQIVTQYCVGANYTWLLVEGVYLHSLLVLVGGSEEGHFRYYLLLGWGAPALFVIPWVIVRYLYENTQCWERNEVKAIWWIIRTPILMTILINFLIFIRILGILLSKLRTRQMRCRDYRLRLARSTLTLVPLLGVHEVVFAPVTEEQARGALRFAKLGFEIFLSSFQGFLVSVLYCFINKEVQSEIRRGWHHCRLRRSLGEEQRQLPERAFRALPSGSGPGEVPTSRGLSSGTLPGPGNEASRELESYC
Method: Functional activity was determined in CHO-K1 clonal cell lines expressing GIPR, GLP-1R, and GCGR. […] Each recipient cell (5000 cells/well) was added to an SV 96-well plate (Cisbio, 66PL96025) and incubated with the prepared polypeptide at 37°Cfor 30 min. The resulting increase in intracellular cAMP was quantitatively measured using the cAMP-GS dynamic HTRF assay kit (Cisbio, 62AM4PEJ). Briefly, the intracellular cAMP levels were determined by adding cAMP-d2 conjugate in cell lysis buffer, followed by the antibody anti-cAMP-Eu cryptate (also in cell lysis buffer).
Using the maximum response percentage vs. the added polypeptide concentration, the relative EC50 values were derived through nonlinear regression analysis and fitted to a four-parameter logarithmic equation. For specific data, refer to Tables 7-1 to 7-8 below. […]

[2] = Pharmacokinetics in mice after single intravenous injection; set-up: species or system C57 mice; settings: in vivo
Method: Male C57 mice were used as test animals. The target compound was administered via a single intravenous injection, and the pharmacokinetic characteristics of the compound in C57 mice in vivo (plasma) were determined.
Male C57 mice, weighing approximately 25g, aged 4-6 weeks. After preparing the polypeptide compound solution using 1×PBS dissolving solution, the compound was administered intravenously at a dose of 200 nmol/kg, where each compound was administered to 3 animals. Blood samples of 60 µL were collected at 5 min, 15 min, 0.5 h, 1 h, 2 h, 4 h, 6 h, 24 h, 48 h and 72 h after the infusion was completed and transferred to centrifuge tubes containing EDTA-K2 anticoagulant. Whole blood samples were centrifuged at 4000 g for 5 min at 4°C. Plasma was separated and plasma samples were frozen and stored at -80 °C.
Sample pretreatment method: 30 µL of plasma samples was taken, and 120 µL of 0.1% formic acid in methanol containing 1 ng/mL internal standard verapamil was added. The mixture was vortexed for 5 min, and centrifuged at 10000 rpm for 10 min at low temperature. 70 µL of supernatant was taken, and 70 µL of water was added and mixed well. Analysis was performed by LC-MS instrument.
LC-MS analysis method: (1) chromatographic conditions: mobile phases A and B: 0.1% formic acid in water and 0.1% formic acid in acetonitrile, respectively; gradient elution mode; flow rate: 0.5 mL/min; injection volume: 10 µL; chromatographic column: nanomicro Unisil C18aq (4.6 mm × 150 mm, 5 µm); column temperature: 40°C. (2) Mass spectrometry conditions: For mass spectrometry, an electrospray ionization source (ESI), positive ion analysis mode, and multiple reaction monitoring (MRM) scanning mode were used.
For data processing, SCIEX OS (Version 2.1.6) software was used to quantify blood drug concentration data and PKSolver (Version 2.0) software was used to calculate pharmacokinetic parameters.

[3] = mouse, male C57 mice, single intravenous dose 200 nmol/kg, plasma

## CC[C@H](C)[C@H](NC(=O)[C@H](CO)NC(=O)[C@H](Cc1ccc(O)cc1)NC(=O)[C@H](CC(=O)O)NC(=O)[C@H](CO)NC(=O)[C@@H](NC(=O)[C@H](Cc1ccccc1)NC(=O)[C@@H](NC(=O)CNC(=O)[C@H](CCC(N)=O)NC(=O)C(C)(C)NC(=O)[C@@H](N)Cc1c[nH]cn1)[C@@H](C)O)[C@@H](C)O)C(=O)N[C@@H](CC(C)C)C(=O)N[C@@H](CC(C)C)C(=O)N[C@@H](CCC(=O)O)C(=O)N[C@@H](CCCCNC(=O)COCCOCCNC(=O)COCCOCCNC(=O)CC[C@H](NC(=O)CCCCCCCCCCCCCCCCCCC(=O)O)C(=O)O)C(=O)N[C@@H](CCCCN)C(=O)N[C@@H](C)C(=O)N[C@@H](C)C(=O)NC(C)(C)C(=O)N[C@@H](CCC(=O)O)C(=O)N[C@@H](Cc1ccccc1)C(=O)N[C@H](C(=O)N[C@@H](CCC(=O)O)C(=O)N[C@@H](Cc1c[nH]c2ccccc12)C(=O)N[C@@H](CC(C)C)C(=O)N[C@@H](CC(C)C)C(=O)N[C@@H](C)C(=O)NCC(=O)NCC(=O)N1CCC[C@H]1C(=O)N[C@@H](CO)C(=O)N[C@@H](CO)C(=O)NCC(=O)N[C@@H](C)C(=O)N1CCC[C@H]1C(=O)N1CCC[C@H]1C(=O)N1CCC[C@H]1C(=O)N[C@@H](CO)C(N)=O)C(C)C [Compound 0156]
[1]
  EC50: 0.019 nM

## CC[C@H](C)[C@H](NC(=O)[C@H](CO)NC(=O)[C@H](Cc1ccc(O)cc1)NC(=O)[C@H](CC(=O)O)NC(=O)[C@H](CO)NC(=O)[C@@H](NC(=O)[C@H](Cc1ccccc1)NC(=O)[C@@H](NC(=O)CNC(=O)[C@H](Cc1c[nH]cn1)NC(=O)C(C)(C)NC(=O)[C@@H](N)Cc1c[nH]cn1)[C@@H](C)O)[C@@H](C)O)C(=O)N[C@@H](CC(C)C)C(=O)N[C@@H](CC(C)C)C(=O)N[C@@H](CCC(=O)O)C(=O)N[C@@H](CCCCNC(=O)COCCOCCNC(=O)COCCOCCNC(=O)CC[C@H](NC(=O)CCCCCCCCCCCCCCCCCCC(=O)O)C(=O)O)C(=O)N[C@@H](CCC(N)=O)C(=O)N[C@@H](C)C(=O)N[C@@H](C)C(=O)NC1(C(=O)N[C@@H](CCC(=O)O)C(=O)N[C@@H](Cc2ccccc2)C(=O)N[C@H](C(=O)N[C@@H](CCC(=O)O)C(=O)N[C@@H](Cc2c[nH]c3ccccc23)C(=O)N[C@@H](CC(C)C)C(=O)N[C@@H](CC(C)C)C(=O)N[C@@H](C)C(=O)N[C@H](CCC(=O)O)C(=O)NCC(=O)N2CCC[C@H]2C(=O)N[C@@H](CO)C(=O)N[C@@H](CO)C(=O)NCC(=O)N[C@@H](C)C(=O)N2CCC[C@H]2C(=O)N2CCC[C@H]2C(=O)N2CCC[C@H]2C(=O)N[C@@H](CO)C(N)=O)C(C)C)CCC1 [Compound 0150]
[1]
  EC50: 0.002 nM

## CC[C@H](C)[C@H](NC(=O)[C@H](CO)NC(=O)[C@H](CC(C)C)NC(=O)[C@H](CC(=O)O)NC(=O)[C@H](CO)NC(=O)[C@@H](NC(=O)[C@H](Cc1ccccc1)NC(=O)[C@@H](NC(=O)CNC(=O)[C@H](Cc1c[nH]cn1)NC(=O)C(C)(C)NC(=O)[C@@H](N)Cc1c[nH]cn1)[C@@H](C)O)[C@@H](C)O)C(=O)N[C@@H](CC(C)C)C(=O)N[C@@H](CC(C)C)C(=O)N[C@@H](CCC(=O)O)C(=O)N[C@@H](CCCCNC(=O)COCCOCCNC(=O)COCCOCCNC(=O)CC[C@H](NC(=O)CCCCCCCCCCCCCCCCCCC(=O)O)C(=O)O)C(=O)N[C@@H](CCCCN)C(=O)N[C@@H](C)C(=O)N[C@@H](C)C(=O)NC(C)(CC)C(=O)N[C@@H](CCC(=O)O)C(=O)N[C@@H](Cc1ccccc1)C(=O)N[C@H](C(=O)N[C@@H](CCC(=O)O)C(=O)N[C@@H](Cc1c[nH]c2ccccc12)C(=O)N[C@@H](CC(C)C)C(=O)N[C@@H](CC(C)C)C(=O)N[C@@H](C)C(=O)NCC(=O)NCC(=O)N1CCC[C@H]1C(=O)N[C@@H](CO)C(=O)N[C@@H](CO)C(=O)NCC(=O)N[C@@H](C)C(=O)N1CCC[C@H]1C(=O)N1CCC[C@H]1C(=O)N1CCC[C@H]1C(=O)N[C@@H](CO)C(N)=O)C(C)C (stereo partly drawn) [Compound 0136]
[1]
  EC50: 0.001 nM

## CC[C@H](C)[C@H](NC(=O)[C@H](CO)NC(=O)[C@H](CC(C)C)NC(=O)[C@H](CC(=O)O)NC(=O)[C@H](CO)NC(=O)[C@@H](NC(=O)[C@H](Cc1ccccc1)NC(=O)[C@@H](NC(=O)CNC(=O)[C@H](Cc1c[nH]cn1)NC(=O)C(C)(C)NC(=O)[C@@H](N)Cc1c[nH]cn1)[C@@H](C)O)[C@@H](C)O)C(=O)N[C@@](C)(CC(C)C)C(=O)N[C@@H](CC(C)C)C(=O)N[C@@H](CCC(=O)O)C(=O)N[C@@H](CCCCNC(=O)COCCOCCNC(=O)COCCOCCNC(=O)CC[C@H](NC(=O)CCCCCCCCCCCCCCCCCCC(=O)O)C(=O)O)C(=O)N[C@@H](CCCCN)C(=O)N[C@@H](C)C(=O)N[C@@H](C)C(=O)NC1(C(=O)N[C@@H](CCC(=O)O)C(=O)N[C@@H](Cc2ccccc2)C(=O)N[C@H](C(=O)N[C@@H](CCC(=O)O)C(=O)N[C@@H](Cc2c[nH]c3ccccc23)C(=O)N[C@@H](CC(C)C)C(=O)N[C@@H](CC(C)C)C(=O)N[C@@H](C)C(=O)NCC(=O)NCC(=O)N2CCC[C@H]2C(=O)N[C@@H](CO)C(=O)N[C@@H](CO)C(=O)NCC(=O)N[C@@H](C)C(=O)N2CCC[C@H]2C(=O)N2CCC[C@H]2C(=O)N2CCC[C@H]2C(=O)N[C@@H](CO)C(N)=O)C(C)C)CCC1 [Compound 0140]
[2]; male, C57, mouse, iv
  clearance: 0.115 mL/min/kg
  half-life: 9.3 h

## CC[C@H](C)[C@H](NC(=O)[C@H](CC(C)C)NC(=O)[C@H](Cc1c[nH]c2ccccc12)NC(=O)[C@H](CCC(=O)O)NC(=O)[C@@H](NC(=O)[C@H](Cc1ccccc1)NC(=O)[C@H](CCC(=O)O)NC(=O)C(C)(CC)NC(=O)[C@H](C)NC(=O)[C@H](C)NC(=O)[C@H](CCCCN)NC(=O)[C@H](CCCCNC(=O)COCCOCCNC(=O)COCCOCCNC(=O)CC[C@H](NC(=O)CCCCCCCCCCCCCCCCCCC(=O)O)C(=O)O)NC(=O)[C@H](CCC(=O)O)NC(=O)[C@H](CC(C)C)NC(=O)[C@H](CC(C)C)NC(=O)[C@](C)(CCCCN)NC(=O)[C@H](CO)NC(=O)[C@H](Cc1ccc(O)cc1)NC(=O)[C@H](CC(=O)O)NC(=O)[C@H](CO)NC(=O)[C@@H](NC(=O)[C@H](Cc1ccccc1)NC(=O)[C@@H](NC(=O)CNC(=O)[C@H](Cc1c[nH]cn1)NC(=O)C(C)(C)NC(=O)[C@@H](N)Cc1c[nH]cn1)[C@@H](C)O)[C@@H](C)O)C(C)C)C(=O)N[C@@H](CCC(=O)O)C(=O)NCC(=O)NCC(=O)N1CCC[C@H]1C(=O)N[C@@H](CO)C(=O)N[C@@H](CO)C(=O)NCC(=O)N[C@@H](C)C(=O)N1CCC[C@H]1C(=O)N1CCC[C@H]1C(=O)N1CCC[C@H]1C(=O)N[C@@H](CO)C(N)=O (stereo partly drawn) [Compound 0131] (H-H[Aib]HGTFTSDYS[αMeK]LLEK([AEEA-AEEA-γGlu-C20 diacid])KAA[ξIva]EFVEWLIEGGPSSGAPPPS-NH2)
[2]; [3]
  AUC(0-inf): 22.5 µM·h
  C0: 5.98 µM
[2]; mouse, male C57 mice, single intravenous dose 200 nmol/kg, plasma, read-out: CLp
  clearance: 0.148 mL/min/kg
[2]; mouse, male C57 mice, single intravenous dose 200 nmol/kg, plasma, read-out: T1/2 (converted)
  half-life: 10.2 h

— patent EP4745153A1, “GLP-1, GIP AND GCG RECEPTOR […] USE THEREOF” (Jiangsu Hengrui Pharmaceuticals Co., Ltd., priority 2023, dated 2025)
